Laboratory results published in paper PMC6744458, “A ribose-functionalized NAD^+ with unexpected high activity and selectivity for protein poly-ADP-ribosylation” (Nature Communications, 2019).

How the values were obtained:
Format in all cases: biochemical
[1] = biological target: T1, catalytic domain of human PARP10 (Homo sapiens, UniProt Q53GL7); assay: automodification, click biotin labelling, streptavidin-HRP immunoblot; conditions: […] analogue, […] MgCl2, pH […]
T1 construct: catalytic domain residues 809-1017, N-terminal His6, E. coli BL21 (DE3)
T1 sequence (Q53GL7 809-1017): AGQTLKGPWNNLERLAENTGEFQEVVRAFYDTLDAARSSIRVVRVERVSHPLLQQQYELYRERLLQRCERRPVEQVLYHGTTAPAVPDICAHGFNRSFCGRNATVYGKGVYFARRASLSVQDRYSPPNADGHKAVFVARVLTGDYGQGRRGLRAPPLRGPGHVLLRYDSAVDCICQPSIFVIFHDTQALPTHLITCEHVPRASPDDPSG

[2] = biological target: T2, catalytic domain of human PARP5a (Homo sapiens, UniProt O95271); assay: as above; conditions: […] analogue, […] MgCl2, pH […]
T2 construct: gene TNKS; catalytic domain residues 1093-1327, C-terminal His6, E. coli BL21 (DE3)
T2 sequence (O95271 1093-1327): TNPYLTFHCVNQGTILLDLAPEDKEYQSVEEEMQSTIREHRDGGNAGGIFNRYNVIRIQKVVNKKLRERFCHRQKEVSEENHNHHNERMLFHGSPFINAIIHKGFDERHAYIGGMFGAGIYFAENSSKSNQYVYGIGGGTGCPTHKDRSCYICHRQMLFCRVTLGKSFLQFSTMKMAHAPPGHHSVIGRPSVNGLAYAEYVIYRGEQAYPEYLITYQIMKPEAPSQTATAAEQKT

human NRK1 = biological target: T3, human NRK1 (Homo sapiens, UniProt Q9NWW6); assay: HPLC conversion; conditions: […] NR6, […] ATP, […] MgCl2, pH […], room temperature
T3 construct: gene NMRK1; full length, C-terminal His6, pET-28a, E. coli BL21 (DE3)
T3 sequence (Q9NWW6 1-199): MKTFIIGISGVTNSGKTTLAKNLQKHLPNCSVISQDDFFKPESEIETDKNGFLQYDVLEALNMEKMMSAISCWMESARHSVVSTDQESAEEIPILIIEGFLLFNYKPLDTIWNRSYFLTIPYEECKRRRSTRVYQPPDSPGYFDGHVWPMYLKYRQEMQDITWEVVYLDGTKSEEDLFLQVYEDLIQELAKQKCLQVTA

Row | SMILES | automodification, click biotin labelling, streptavidin-HRP immunoblot [1] | automodification, click biotin labelling, streptavidin-HRP immunoblot [2] | HPLC conversion (human NRK1)
1 | C#Cc1nc(N)c2ncn([C@@H]3O[C@H](COP(=O)(O)OP(=O)([O-])OC[C@H]4O[C@@H]([n+]5cccc(C(N)=O)c5)[C@H](O)[C@@H]4O)[C@@H](O)[C@H]3O)c2n1 [2-a-NAD^+, 2-alkyne-NAD^+] | 6-a-NAD^+ and 2-a-NAD^+ that displayed strong automodification activities for both enzymes | 6-a-NAD^+ and 2-a-NAD^+ that displayed strong automodification activities for both enzymes | –
2 | C#CCNc1ncnc2c1ncn2[C@@H]1O[C@H](COP(=O)(O)OP(=O)([O-])OC[C@H]2O[C@@H]([n+]3cccc(C(N)=O)c3)[C@H](O)[C@@H]2O)[C@@H](O)[C@H]1O [6-a-NAD^+, 6-alkyne-NAD^+] | 6-a-NAD^+ and 2-a-NAD^+ that displayed strong automodification activities for both enzymes | 6-a-NAD^+ and 2-a-NAD^+ that displayed strong automodification activities for both enzymes | –
3 | [N-]=[N+]=N[C@H]1[C@@H](O)[C@H]([n+]2cccc(C(N)=O)c2)O[C@@H]1CO [NR6] | – | – | NRK1 that could only catalyze conversion of NR5 and NR6
